In US12234258B2, “Timosaponin compounds” (priority 2012, dated 2025):
Read-outs that look alike come from different tables or passages of the source. Blank lines part the entries; values can stand above or below the compound they belong to.

Columns and labels:
Type in all cases: cell-based
[1] = system: Aβ1-42 production in SweAPP N2A cells (N2A-APPswe); experiment: Aβ1-42 ELISA of conditioned medium of SweAPP N2A cells
Method: Neuro-2A cells expressing Swedish mutants of (“SweAPP N2A cells”) was cultured in minimal essential medium with glutamine (2 mM), pyruvate (2 mM) and fetal bovine serum (10%). Cells were seeded at 6-well plate at 1×10^6 cells/mL and grown overnight. The medium was replaced.
Conditioned medium was diluted with 2 part volume of ELISA diluents. Aβ1-42 concentrations were determined by using human Aβ1-42 ultrasensitive ELISA kit (manufactured by Invitrogen).
Cell culture: Neuro-2A cells expressing Swedish mutants of APP (N2A-APPswe) ENREF 12 was cultured in minimal essential medium with 2 mM glutamine, 2 mM pyruvate and 10% fetal bovine serum. Cells were seeded at 6-well plate at 1×10^6 cells/mL and grown for two days until confluence. The medium was replaced and the test compounds were added at indicated concentrations for 24 hr.

[2] = system: Aβ42, Aβ40 and Aβ38 in N2A-APPswe cells; experiment: Aβ42, Aβ40 and Aβ38 profiles in conditioned medium by ELISA; conditions: FIG. 18, 18 hr
Method: Aβ ELISA: Aβ concentrations in conditioned medium were assayed using ELISA kits for human Aβ40, human Aβ42 (ultrasensitive) (Invitrogen) and Aβ38 (MyBioSource).
Cells were treated with various concentrations of (TAIII/TAI/AA/TAV) and DMSO vehicle (C) for 18 hr. In part A of FIG. 18, the expression of full length (FL) and CTF (c99 and c83) in cell lysates and secreted APP (sAPPα and sAPPP) in the conditioned medium were examined by immunoblot using methods specified in Example 6. In part B of FIG. 18, the profiles of Aβ42, Aβ40 and Aβ38 in the conditioned medium were determined by ELISA using methods specified in Example 5.

Neuro-2A cells = experiment: Neurite outgrowth of N2A cells; conditions: FIG. 19; TAIII 5 μM, TAI 10 μM, SSG 25 μM, 18 hr, type III β-tubulin staining
Method: Immunofluorescence examination of neurite outgrowth: Neuro-2A cells were seeded at 1×10^5 cells per glass bottom dish. After treatment, cells were fixed with 4% paraformaldyde for 10 min, permeabilized with 0.1% Trition X-100, and then blocked with 1% BSA in PBS. The cells were incubated with monoclonal antibody raised against type III β-tubulin (Sigma) for 1 hr followed by Alexa488 conjugated secondary antibody. Neurite morphology was examined under fluorescence microscope.

[3] = system: HepG2, human hepatoma cells; experiment: Growth of cancer cell lines: HepG2; conditions: mean ± S.D., n = 3; read-out: IC50 against growth of HepG2
[4] = system: HeLa, human cervical carcinoma cells; experiment: Growth of cancer cell lines: HeLa; conditions: mean ± S.D., n = 3; read-out: IC50 against growth of HeLa
[5] = system: NCI-H460, human non-small lung carcinoma cells; experiment: Growth of cancer cell lines: NCI-H460; conditions: mean ± S.D., n = 3; read-out: IC50 against growth of NCI-H460
[6] = system: SW480, human colon adenocarcinoma cells; experiment: Growth of cancer cell lines: SW480; conditions: mean ± S.D., n = 3; read-out: IC50 against growth of SW480
[7] = system: Notch cleavage by γ-secretase in N2A-APPswe cells; experiment: Notch cleavage by γ-secretase (NotchΔE/NICD immunoblot); conditions: FIG. 20; at concentrations that effectively lower Aβ levels, 18 hr
Method: Immunoblot analysis: Cells were washed with phosphate buffered saline and lysed with buffer containing 50 mM Tris-Cl, pH 7.4, 150 mM NaCl, 1% Triton X-100 supplemented with protease inhibitors. Equal amount of proteins (30 μg) was resolved by 16.5% Tris-tricine gels and then transferred to nitrocellulose membrane with 0.2 µm pore size. For detection of secreted Aβ, sAPPα and sAPPβ, cells were treated with the timosaponins for 8 hr in complete medium which were then replaced with medium containing 0.1% FBS. After further incubation of 16 hr, 50 μL of the conditioned medium was mixed with SDS sample buffer and resolved accordingly. The membrane was blocked with Tris-buffered saline containing 0.1% TWEEN® 20 and 3% BSA and then incubated with primary antibodies at 4° C. overnight, followed with appropriate secondary antibodies for 2 hr. The primary antibodies were: APP c-terminal rabbit antibody (1:5000; Merck Bioscience) for detection of full length APP and APP-CTFs, mouse monoclonal 6E10 (Covance) for secreted Aβ and sAPPα, mouse monoclonal 6A1 (IBL) for sAPPβswe, ADAM-10 rabbit antibody (Millipore) and BACE1 rabbit antibody (Millipore). The immunoreactivities were detected using enhanced chemiluminescence reagents (GE Health care). […]

[8] = Table 4, N2A-APPswe cells, mean ± S.D, n ≥ 3, read-out: IC50 in lowering Aβ42 production
[9] = Example 7, SweAPP N2A cells, Aβ1-42 ELISA, read-out: IC50, inhibition of Aβ production
[10] = N2a-APPswe, read-out: IC50 in lowering Aβ42 production

SMILES: C[C@H]1CC[C@@]2(OC1)O[C@H]1C[C@H]3[C@@H]4CC[C@@H]5C[C@@H](O[C@@H]6O[C@H](CO)[C@@H](O)[C@H](O)[C@H]6O)CC[C@]5(C)[C@H]4CC[C@]3(C)[C@H]1[C@@H]2C [Asparagoside A]
IC50 [1, 8]: 6 ± 1.4 µM | Aβ profile (Aβ42 vs Aβ40 and Aβ38) [2]: preferentially lower Aβ42 production | Neurite outgrowth (Neuro-2A cells): significant extension and branching of neurites | IC50 [3]: 7.72 ± 2.68 µM | IC50 [4]: 65.4 ± 20.9 µM | IC50 [5]: 14.1 ± 0.64 µM | IC50 [6]: 15.6 ± 1.96 µM

IC50 [1, 9]: ~20 µM | IC50 ([1]; Example 9, SweAPP N2A cells, Aβ1-42 ELISA, read-out: ICS50, inhibitor of Aβ production): 5 µM | IC50 [1, 8]: 6.1 ± 2.8 µM | IC50 [3]: 10.5 ± 4.64 µM | IC50 [4]: 44.5 ± 1.15 µM | IC50 [5]: 10.2 ± 4.64 µM | IC50 [6]: 12.1 ± 3.83 µM
SMILES: C[C@H]1CC[C@@]2(OC1)O[C@H]1C[C@H]3[C@@H]4CC[C@@H]5C[C@@H](O[C@@H]6O[C@H](CO)[C@H](O)[C@H](O)[C@H]6O)CC[C@]5(C)[C@H]4CC[C@]3(C)[C@H]1[C@@H]2C [Timosaponin AI]
Aβ profile (Aβ42 vs Aβ40 and Aβ38) [2]: preferentially lower Aβ42 production | Neurite outgrowth (Neuro-2A cells): significant extension and branching of neurites

SMILES: C[C@@H]1CC[C@@]2(OC1)O[C@H]1C[C@H]3[C@@H]4CC[C@H]5C[C@@H](O)CC[C@]5(C)[C@H]4CC[C@]3(C)[C@H]1[C@@H]2C [Tigogenin]
IC50 [1, 10]: > 100 µM

SMILES: C[C@H]1CC[C@@]2(OC1)O[C@H]1C[C@H]3[C@@H]4CC[C@@H]5C[C@@H](O)CC[C@]5(C)[C@H]4CC[C@]3(C)[C@H]1[C@@H]2C [Sarsasapogenin]
IC50 [1, 9]: ~20 µM | IC50 [1, 8]: 53 ± 9 µM | Notch processing (NotchΔE and NICD) [7]: did not affect the Notch processing | Neurite outgrowth (Neuro-2A cells): significant extension and branching of neurites | IC50 [3]: 32.6 ± 4.58 µM | IC50 [4]: 50 ± 2 µM | IC50 [5]: 19.2 ± 0.45 µM | IC50 [6]: 29.4 ± 5.09 µM

SMILES: C[C@H]1CC[C@@]2(OC1)O[C@H]1C[C@H]3[C@@H]4CC[C@@H]5C[C@H](O)CC[C@]5(C)[C@H]4CC[C@]3(C)[C@H]1[C@@H]2C [Episarsasapogenin]
IC50 [1, 8]: > 100 µM

SMILES: C[C@H]1CC[C@@]2(OC1)O[C@H]1C[C@H]3[C@@H]4C[C@@H](O)[C@@H]5C[C@@H](O)CC[C@]5(C)[C@H]4CC[C@]3(C)[C@H]1[C@@H]2C [5β-H, 6β-OH yamogenin]
IC50 [1, 8]: 45 ± 4 µM

SMILES: C[C@H]1CC[C@@]2(OC1)O[C@H]1C[C@H]3[C@@H]4CC[C@H]5C[C@@H](O)CC[C@]5(C)[C@H]4CC[C@]3(C)[C@H]1[C@@H]2C [Neotigogenin]
IC50 [1, 10]: > 100 µM

IC50 [1, 8]: > 100 µM
SMILES: C[C@H]1CC[C@@]2(OC1)O[C@H]1C[C@H]3[C@@H]4CC=C5C[C@@H](O)CC[C@]5(C)[C@H]4CC[C@]3(C)[C@H]1[C@@H]2C [Yamogenin]

SMILES: C[C@@H](CC[C@@]1(O)O[C@H]2C[C@H]3[C@@H]4CC[C@@H]5C[C@@H](O[C@@H]6O[C@H](CO)[C@H](O)[C@H](O)[C@H]6O[C@@H]6O[C@H](CO)[C@@H](O)[C@H](O)[C@H]6O)CC[C@]5(C)[C@H]4CC[C@]3(C)[C@H]2[C@@H]1C)CO[C@@H]1O[C@H](CO)[C@@H](O)[C@H](O)[C@H]1O [Timosaponin BII]
IC50 [3]: > 100 µM | IC50 [4]: > 100 µM | IC50 [5]: > 100 µM | IC50 [6]: > 100 µM

SMILES: C[C@@H]1CC[C@@]2(OC1)O[C@H]1C[C@H]3[C@@H]4CC[C@@H]5CC(=O)CC[C@]5(C)[C@H]4CC[C@]3(C)[C@H]1[C@@H]2C [Sarsasapogenone]
IC50 [1, 8]: 50 ± 5 µM

SMILES: C[C@H]1CC[C@@]2(OC1)O[C@H]1C[C@H]3[C@@H]4C[C@H](O)[C@H]5C[C@@H](O)CC[C@]5(C)[C@H]4CC[C@]3(C)[C@H]1[C@@H]2C [5α-H, 6α-OH yamogenin]
IC50 [1, 8]: > 100 µM

SMILES: C[C@@H]1CC[C@@]2(OC1)O[C@H]1C[C@H]3[C@@H]4CC[C@@H]5C[C@@H](O)CC[C@]5(C)[C@H]4CC[C@]3(C)[C@H]1[C@@H]2C [Smilagenin]
IC50 [1, 10]: > 100 µM

SMILES: C[C@H]1CC[C@@]2(OC1)O[C@H]1C[C@H]3[C@@H]4CC[C@@H]5C[C@@H](OCC(=O)O)CC[C@]5(C)[C@H]4CC[C@]3(C)[C@H]1[C@@H]2C [Ethereal SSG]
IC50 [1, 10]: 27 ± 8 µM | Notch processing (NotchΔE and NICD) [7]: did not affect the Notch processing

SMILES: C[C@@H]1CC[C@@]2(OC1)O[C@H]1C[C@H]3[C@@H]4C[C@H](O)[C@H]5C[C@@H](O)CC[C@]5(C)[C@H]4CC[C@]3(C)[C@H]1[C@@H]2C [5α-H, 6α-OH diosgenin]
IC50 [1, 8]: > 100 µM

IC50 [1, 8]: > 100 µM
SMILES: C[C@@H]1CC[C@@]2(OC1)O[C@H]1C[C@H]3[C@@H]4CC=C5C[C@@H](O)CC[C@]5(C)[C@H]4CC[C@]3(C)[C@H]1[C@@H]2C [Diosgenin]

IC50 [1, 8]: 4.2 ± 1.2 µM | IC50 [3]: 17.4 ± 4.29 µM | IC50 [4]: 21.6 ± 5.2 µM | IC50 [5]: 20 ± 0.71 µM | IC50 [6]: 21.7 ± 2.27 µM
SMILES: C[C@H]1CC[C@@]2(OC1)O[C@H]1C[C@H]3[C@@H]4CC[C@@H]5C[C@@H](O[C@@H]6O[C@H](CO)[C@H](O[C@@H]7O[C@H](CO)[C@@H](O)[C@H](O)[C@H]7O)[C@H](O)[C@H]6O[C@@H]6O[C@H](CO)[C@@H](O)[C@H](O)[C@H]6O)CC[C@]5(C)[C@H]4CC[C@]3(C)[C@H]1[C@@H]2C [Timosaponin AV]
Aβ profile (Aβ42 vs Aβ40 and Aβ38) [2]: preferentially lower Aβ42 production

SMILES: CC(CO)CCC1OC2CC3C4CCC5CC(O)CCC5(C)C4CCC3(C)C2C1C (stereo not shown) [Dihydrosarsasapogenin]
IC50 [1, 8]: > 100 µM

SMILES: C[C@@H]1CC[C@@]2(OC1)O[C@H]1C[C@H]3[C@@H]4C[C@@H](O)[C@@H]5C[C@@H](O)CC[C@]5(C)[C@H]4CC[C@]3(C)[C@H]1[C@@H]2C [5β-H, 6β-OH diosgenin]
IC50 [1, 8]: > 100 µM

IC50 [1, 8]: > 100 µM
SMILES: C[C@@H]1CC[C@@]2(OC1)O[C@H]1C[C@H]3[C@@H]4CC=C5C[C@@H](O[C@@H]6O[C@H](CO)[C@H](O)[C@H](O)[C@H]6O)CC[C@]5(C)[C@H]4CC[C@]3(C)[C@H]1[C@@H]2C [Capsicoside A3]

IC50 [1, 8]: > 100 µM | IC50 [3]: > 100 µM | IC50 [4]: > 100 µM | IC50 [5]: > 100 µM | IC50 [6]: > 100 µM
SMILES: CO[C@]1(CC[C@H](C)CO[C@@H]2O[C@H](CO)[C@@H](O)[C@H](O)[C@H]2O)O[C@H]2C[C@H]3[C@@H]4CC[C@@H]5C[C@@H](O[C@@H]6O[C@H](CO)[C@H](O)[C@H](O)[C@H]6O[C@@H]6O[C@H](CO)[C@@H](O)[C@H](O)[C@H]6O)CC[C@]5(C)[C@H]4CC[C@]3(C)[C@H]2[C@@H]1C [Timosaponin BI]

IC50 [1, 8]: > 100 µM
SMILES: CC(C)[C@@H](C)/C=C/[C@@H](C)[C@H]1CC[C@H]2C3=CC=C4C[C@@H](O)CC[C@]4(C)[C@H]3CC[C@]12C [Ergosterol, reference compound]
